Structures can show the parent of a compound that is named as a salt.
Assays:
Human secretory PLA2 = molecular target: T1, Human secretory PLA2 (Homo sapiens, UniProt P14555); assay: Secretory PLA2 inhibitory activity (diheptanoyl thio PC substrate, absorbance at 405 nm); assay type: biochemical; conditions: diheptanoyl thio PC 1 mM, Triton X100 0.3 mM, pH 7.3, CaCl2 10 mM, 30 minutes, read-out: s-PLA2 Inhibition IC50
T1 sequence (P14555 21-144): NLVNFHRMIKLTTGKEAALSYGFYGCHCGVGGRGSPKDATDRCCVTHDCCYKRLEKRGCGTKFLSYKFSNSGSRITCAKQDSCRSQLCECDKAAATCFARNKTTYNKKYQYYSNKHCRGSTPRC
Procedure: Secretory PLA2 activity was assayed according to the method described in Penynolds L. J., Hughes L. L., Dennis E. A. et al. Anal. Biochem. 201,190-197 (1992).
Diheptanoyl thiophosphatidylcholine which was prepared according to the procedure described in the literature was used as a substrate. Human secretory PLA2 was used as an enzyme. The diheptanoyl thio PC (1 mM) was reacted with the human secretory PLA2 in the presence of Triton X100 (0.3 mM) and 5,5'-dithiobis-(2-nitrobenzoic acid) (125 μM) in Tris buffer (25 mM, pH 7.3), CaCl2 (10 mM), KCI (100 mM), bovine serum albumin (1.0 mg/ml), and then the change in absorbance at 405 nm at the time of 30 minutes after the reaction was assayed.
Inhibitory activity (%) was estimated by the formula: [(the change in absorbance with the inhibitor and PLA2 ·the change in absorbance with the inhibitor and without PLA2)/(the change in absorbance without the inhibitor and with PLA2 ·the change in absorbance without the inhibitor and PLA2)]×100.
IC50 value (μM) was calculated from graph showing inhibitory values on the vertical axis and log of concentrations of the inhibitor on the horizontal axis.

[1] = molecular target: T2, intracellular PLA2 (cytosolic PLA2, cPLA2) (Homo sapiens, UniProt P47712); assay: Intracellular PLA2 (cPLA2) inhibitory activity (14C-arachidonyl phosphatidylcholine substrate); assay type: biochemical; conditions: 2 μM radiolabelled phosphatidylcholine, 1 μM dioleoylglycerol, 1 mM CaCl2, pH 7.4; read-out: c-PLA2 Inhibition IC50
T2 sequence (P47712 1-749): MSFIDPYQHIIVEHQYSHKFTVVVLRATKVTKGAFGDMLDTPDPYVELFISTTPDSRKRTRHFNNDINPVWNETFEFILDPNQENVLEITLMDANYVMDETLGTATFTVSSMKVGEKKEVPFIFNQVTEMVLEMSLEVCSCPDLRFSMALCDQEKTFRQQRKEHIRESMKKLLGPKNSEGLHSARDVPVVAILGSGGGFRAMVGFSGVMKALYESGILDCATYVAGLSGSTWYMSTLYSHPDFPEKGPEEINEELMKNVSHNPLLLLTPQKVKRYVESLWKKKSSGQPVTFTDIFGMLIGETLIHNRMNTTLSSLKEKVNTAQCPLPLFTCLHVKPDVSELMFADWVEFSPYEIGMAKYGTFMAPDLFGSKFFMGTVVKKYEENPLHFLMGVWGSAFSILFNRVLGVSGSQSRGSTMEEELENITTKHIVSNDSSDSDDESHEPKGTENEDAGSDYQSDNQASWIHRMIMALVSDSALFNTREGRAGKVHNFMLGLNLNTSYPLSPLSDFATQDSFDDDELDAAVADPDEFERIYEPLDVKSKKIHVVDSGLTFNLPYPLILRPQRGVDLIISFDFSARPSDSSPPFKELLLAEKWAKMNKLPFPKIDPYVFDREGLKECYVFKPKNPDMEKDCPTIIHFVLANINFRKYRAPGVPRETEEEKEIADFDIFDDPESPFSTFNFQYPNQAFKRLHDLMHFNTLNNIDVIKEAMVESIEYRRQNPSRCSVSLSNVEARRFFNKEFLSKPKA
Procedure: cPLA2 activity was assayed according to the method described in R. M. Kramer, E. F. Roberts, J. Manetta and J. E. Putnam, J. Biol. Chem., 268 (8), 5268-5272 (1991). Briefly, intracellular PLA2 activity was assayed using supersonic treated […] which contain 1-palmitoyl-2-[^14 C]arachidonyl-sn-glycero-3-phosphocholine and sn-1, 2-dioleoylglycerol at a molar ratio of 2:1. This test mixture contained 1 mM CaCl2, 2 mM dithiothreitol, 150 mM NaCl, 50 mM Hepes, pH 7.4 and 0.1 mg/ml BSA. A substrate is a 2 μM radioisotope labelled phosphatidylcholine ribosome containing 1 μM dioleoylglycerol. IC50 value is calculating in the same manner as in calculating it for secretory PLA2 inhibitory activity.

Row | Compound | IC50 (Human secretory PLA2) | IC50 [1]
1 | COc1c(C)c(OC(=O)c2c(C)c(C)c(OCCCCCCOc3ccc(C(F)(F)F)cc3)c(C)c2OC)c(C)c(C)c1C(=O)O [Example 3, 4-[4-[6-(4-Trifluoromethylphenoxy)hexyloxy]-2-methoxy-3,5,6-trimethylphenylcarboxy]-2-methoxy-3,5,6-trimethylbenzoic acid] | 32 µM | 3 µM
2 | COc1c(C)c(OC(=O)c2c(C)c(C)c(OCCCCCCOc3ccc(F)cc3)c(C)c2OC)c(C)c(C)c1C(=O)O [Example 4, 4-[4-[6-(4-Fluorophenoxy)hexyloxy]-2-methoxy-3,5,6-trimethylphenylcarboxy]-2-methoxy-3,5,6-trimethylbenzoic acid] | 27 µM | 7.4 µM
3 | COc1c(C)c(OC(=O)c2c(C)c(C)c(OCCCCCCSc3ccc(F)cc3)c(C)c2OC)c(C)c(C)c1C(=O)O [Example 5, 4-[4-[6-(4-Fluorophenylthio)hexyloxy]-2-methoxy-3,5,6-trimethylphenylcarboxy]-2-methoxy-3,5,6-trimethylbenzoic acid] | 47 µM | 4 µM
4 | COc1c(C)c(OC(=O)c2c(C)c(C)c(OCCCCCCS(=O)(=O)c3ccc(F)cc3)c(C)c2OC)c(C)c(C)c1C(=O)O [Example 6, 4-[4-[6-(4-Fluorophenylsulfonyl)hexyloxy]-2-methoxy-3,5,6-trimethylphenylcarboxy]-2-methoxy-3,5,6-trimethylbenzoic acid] | 9 µM | 12 µM
5 | COc1c(C(C)(C)C)cc(SCCCOc2c(C)c(C)c(C(=O)Oc3c(C)c(C)c(C(=O)O)c(OC)c3C)c(OC)c2C)cc1C(C)(C)C [Example 7, 4-[4-[3-(3,5-Di-tert-butyl-4-methoxyphenylthio)propyloxy]-2-methoxy-3,5,6-trimethylphenylcarboxy]-2-methoxy-3,5,6-trimethylbenzoic acid] | > 50 µM | 0.54 µM
6 | COc1c(C)c(OC(=O)c2c(C)c(C)c(OCc3ccc(F)cc3)c(C)c2OC)c(C)c(C)c1C(=O)O [Example 8, 4-[4-(4-Fluorobenzyloxy)-2-methoxy-3,5,6-trimethylphenylcarboxy]-2-methoxy-3,5,6-trimethylbenzoic acid] | 22 µM | 31 µM
7 | COc1c(C)c(OC(=O)c2c(C)c(C)c(OCc3ccccc3)c(C)c2OC)c(C)c(C)c1C(=O)O [Example 9, 4-[4-Benzyloxy-2-methoxy-3,5,6-trimethylphenylcarboxy)2-methoxy-3,5,6-trimethylbenzoic acid] | 45 µM | 33 µM
8 | COc1c(C)c(OC(=O)c2c(C)c(C)c(OCCCSc3ccc(F)cc3)c(C)c2OC)c(C)c(C)c1C(=O)O [Example 10, 4-[4-[3-(4-Fluorophenylthio)propyloxy]-2-methoxy-3,5,6-trimethylphenylcarboxy]-2-methoxy-3,5,6-trimethylbenzoic acid] | 13 µM | 13 µM

The remaining lines, values ahead:

Row | IC50 (Human secretory PLA2) | IC50 [1] | Compound
9 | 44 µM | 4.1 µM | COc1c(C)c(OC(=O)c2c(C)c(C)c(OCCC3=CCC4CC3C4(C)C)c(C)c2OC)c(C)c(C)c1C(=O)O (single isomer, unassigned) [Example 49, 4-{4-[2-(6,6-Dimetheylbicyclo[3.1.1]hept-2-en-2-yl)ethoxy]-2-methoxy-3,5,6-trimethylbenzoyloxy}-2-methoxy-3,5,6-trimethylbenzoic Acid]
10 | 14 µM | 4.8 µM | COc1c(C)c(OC(=O)c2c(C)c(C)c(OCCCCCCOc3ccc(Cl)cc3)c(C)c2OC)c(C)c(C)c1C(=O)O [Example 11, 4-[4-[6-(4-Chlorophenoxy)hexyloxy]-2-methoxy-3,5,6-trimethylphenylcarboxy]-2-methoxy-3,5,6-trimethylbenzoic acid]
11 | > 50 µM | 2 µM | COc1c(C(C)(C)C)cc(SCCCCCCOc2c(C)c(C)c(C(=O)Oc3c(C)c(C)c(C(=O)O)c(OC)c3C)c(OC)c2C)cc1C(C)(C)C [Example 12, 4-[4-[6-(3,5-Di-tert-butyl-4-methoxyphenylthio)hexyloxy]-2-methoxy-3,5,6-trimethylphenylcarboxy]-2-methoxy-3,5,6-trimethylbenzoic acid]
12 | > 50 µM | 1.9 µM | COc1c(C(C)(C)C)cc(SCCCCCCOc2c(C)c(C)c(C(=O)O)c(OC)c2C)cc1C(C)(C)C [Example 13, 4-[6-(3,5-Di-tert-butyl-4-methoxyphenylthio)hexyloxy]-2-methoxy-3,5,6-trimethylbenzoic acid]
13 | 14 µM | 9.4 µM | COc1c(C)c(OC(=O)c2c(C)c(C)c(OCCCOc3ccc(F)cc3F)c(C)c2OC)c(C)c(C)c1C(=O)O [Example 14, 4-[4-[3-(2,4-difluorophenoxy)propyloxy]-2-methoxy-3,5,6-trimethylphenylcarboxy]-2-methoxy-3,5,6-trimethylbenzoic acid]
14 | > 50 µM | 2.6 µM | COc1c(C(C)(C)C)cc(SCCCOc2c(C)c(C)c(C(=O)O)c(OC)c2C)cc1C(C)(C)C [Example 16, 4-[3-(3,5-Di-tert-butyl-4-methoxyphenylthio)propyloxy]-2-methoxy-3,5,6-trimethylbenzoic acid]
15 | 12 µM | 14 µM | COc1ccc(OCCCOc2c(C)c(C)c(C(=O)Oc3c(C)c(C)c(C(=O)O)c(OC)c3C)c(OC)c2C)cc1 [Example 17, 4-[4-[3-(4-Methoxyphenoxy)propyloxy]-2-methoxy-3,5,6-trimethylphenylcarboxy]-2-methoxy-3,5,6-trimethylbenzoic acid]
16 | > 50 µM | 19 µM | COc1c(C)c(OCCCOc2ccc3ccccc3c2)c(C)c(C)c1C(=O)O [Example 18, 2-Methoxy-3,5,6-trimethyl-4-[3-(2-naphthyloxy)-propyloxy]benzoic acid]
17 | 16 µM | 1.8 µM | COc1c(C)c(OC(=O)c2c(C)c(C)c(OCCCOc3ccc4ccccc4c3)c(C)c2OC)c(C)c(C)c1C(=O)O [Example 19, 4-[2-Methoxy-3,5,6-trimethyl-4-[3-(2-naphthyloxy)-propyloxy]phenylcarboxy]-2-methoxy-3,5,6-trimethylbenzoic acid]
18 | 11 µM | 35 µM | COc1ccc(OCCCOc2c(C)c(C)c(C(=O)Oc3c(C)c(C)c(C(=O)O)c(OC)c3C)c(OC)c2C)cc1OC [Example 20, 4-[4-[3-(3,4-Dimethoxyphenoxy)propyloxy]-2-methoxy-3,5,6-trimethylphenylcarboxy]-2-methoxy-3,5,6-trimethylbenzoic acid]
19 | 15 µM | 1.4 µM | COc1cc(OCCCOc2c(C)c(C)c(C(=O)Oc3c(C)c(C)c(C(=O)O)c(OC)c3C)c(OC)c2C)c(C(c2ccccc2)c2ccccc2)cc1OC [Example 21, 4-[4-[3-(2-Benzhydryl-4,5-dimethoxyphenoxy)propyloxy]-2-methoxy-3,5,6-trimethylphenylcarboxy]-2-methoxy-3,5,6-trimethylbenzoic acid]
20 | 42 µM | 4.3 µM | COc1c(C)c(OC(=O)c2c(C)c(C)c(OCCCNc3ccc(C(F)(F)F)cc3)c(C)c2OC)c(C)c(C)c1C(=O)O [Example 22, 4-[4-[3-(4-Trifluoromethylphenylamino)propyloxy]-2-methoxy-3,5,6-trimethylphenylcarboxy]-2-methoxy-3,5,6 trimethylbenzoic acid hydrochloride]

Source: patent US5534533A, “Carboxylate derivatives exhibiting phospholipase A2 inhibitory activity” (Shionogi & Co., Ltd., priority 1993, dated 1996)
